Results published in the NIST ThermoML archive (doi:10.1016/j.jct.2015.04.005).
Numbers after ± are expanded uncertainties.

Assay: xn = mol fraction of the nth substance listed
Settings: 102.24 kPa, Liquid; for speed of sound: Frequency=5 MHz, Single path-length method; for mass density: Vibrating tube method

CCC(=O)[O-].C[NH2+]CCO [2-hydroxy-N-methylethanaminium propionate] + O
Settings	mass density, 318.15 K [kg/m3]	mass density, 323.15 K [kg/m3]	mass density, 328.15 K [kg/m3]	mass density, 333.15 K [kg/m3]	speed of sound, 318.15 K [m/s]	speed of sound, 323.15 K [m/s]	speed of sound, 328.15 K [m/s]	speed of sound, 333.15 K [m/s]
x1 = 0.02	1003.2 ± 1.7	999.8 ± 1.7	996.4 ± 1.7	993 ± 1.7	1637.4 ± 8	1639.6 ± 8	1641.9 ± 8	1644.1 ± 8
x1 = 0.0501	1027.8 ± 1.7	1025 ± 1.7	1022.2 ± 1.7	1019.4 ± 1.7	1726.9 ± 8	1722 ± 8	1717.1 ± 8	1712.2 ± 8
x1 = 0.1001	1045.2 ± 1.7	1042.4 ± 1.7	1039.7 ± 1.7	1036.9 ± 1.7	1780.5 ± 8	1770.4 ± 8	1760.3 ± 8	1750.3 ± 8
x1 = 0.101	1043.9 ± 1.7	1040.9 ± 1.7	1037.9 ± 1.7	1035 ± 1.7	1773.6 ± 8	1762.5 ± 8	1751.4 ± 8	1740.3 ± 8
x1 = 0.2006	1060.5 ± 1.7	1057.5 ± 1.7	1054.5 ± 1.7	1051.5 ± 1.7	1768 ± 8	1753.2 ± 8	1738.3 ± 8	1723.5 ± 8
x1 = 0.301	1060.2 ± 1.7	1057.1 ± 1.7	1054 ± 1.7	1051 ± 1.7	1733.1 ± 8	1718.9 ± 8	1704.6 ± 8	1690.4 ± 8
x1 = 0.3978	1061.8 ± 1.7	1058.7 ± 1.7	1055.6 ± 1.7	1052.6 ± 1.7	1698.1 ± 8	1683.3 ± 8	1668.6 ± 8	1653.9 ± 8
x1 = 0.4976	1059.8 ± 1.7	1056.7 ± 1.7	1053.6 ± 1.7	1050.5 ± 1.7	1665.2 ± 8	1650 ± 8	1634.8 ± 8	1619.5 ± 8
x1 = 0.5972	1059.4 ± 1.7	1056.2 ± 1.7	1053.1 ± 1.7	1050 ± 1.7	1658.8 ± 8	1643.3 ± 8	1627.8 ± 8	1612.2 ± 8
x1 = 0.8006	1055.8 ± 1.7	1052.6 ± 1.7	1049.3 ± 1.7	1046.1 ± 1.7	1619.5 ± 8	1603.2 ± 8	1587 ± 8	1570.7 ± 8
x1 = 1	1053 ± 1.7	1049.8 ± 1.7	1046.5 ± 1.7	1043.2 ± 1.7	1573.2 ± 8.1	1558.3 ± 8.1	1543.7 ± 8.1	1527 ± 8.1
